From patent publication US20170190671A1, “BIS(ARYL)CATECHOL DERIVATIVES AS HERBICIDES” (E I DU PONT DE NEMOURS AND COMPANY, priority 2014, published 2017)

Legend:
Type in all cases: in vivo
[1] = test system: barnyardgrass (Echinochloa crus-galli); experiment: Test B flooded paddy; details: Echinochloa crus-galli, 336 h; 250 g ai/ha, Flood, 13 to 15 days, scale 0 (no effect) to 100 (complete control); read-out: Plant response rating, Barnyardgrass
Summary of the method: (§1)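 Pots were flooded to 3 cm above the soil surface at treatment, compound applied directly to the paddy water, and that depth held throughout. Plants were kept in a greenhouse for 13 to 15 days, then visually rated against untreated controls.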

rice (Oryza sativa) = experiment: Test B flooded paddy; details: Oryza sativa, 336 h; 250 g ai/ha, Flood, 13 to 15 days, scale 0 (no effect) to 100 (complete control); read-out: Plant response rating, Rice
Summary of the method: as §1

[2] = test system: sedge, umbrella (small-flower umbrella sedge, Cyperus difformis); experiment: Test B flooded paddy; details: Cyperus difformis, 336 h; 250 g ai/ha, Flood, 13 to 15 days, scale 0 (no effect) to 100 (complete control); read-out: Plant response rating, Sedge, Umbrella
Summary of the method: as §1

[3] = test system: ducksalad (Heteranthera limosa); experiment: Test B flooded paddy; details: Heteranthera limosa, 336 h; 250 g ai/ha, Flood, 13 to 15 days, scale 0 (no effect) to 100 (complete control); read-out: Plant response rating, Ducksalad
Summary of the method: as §1

wild oat (Avena fatua) = experiment: Test C postemergence; details: Avena fatua, post-emergence, Postemergence, scale 0 to 100, read-out: Plant response rating, Oat, Wild
Summary of the method: (§2)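 Seeds in loam-sand soil were treated preemergence, and plants at the 1- to 4-leaf stage (2-18 cm) in peat-based medium were sprayed postemergence, with test chemicals in a non-phytotoxic solvent containing surfactant. After 13-15 days in a greenhouse, response was rated visually against controls from 0 (no effect) to 100 (complete control).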

[4] = test system: waterhemp (common waterhemp, Amaranthus rudis); experiment: Test C postemergence; details: Amaranthus tuberculatus, post-emergence, Postemergence, scale 0 to 100, read-out: Plant response rating, Waterhemp
Summary of the method: as §2

kochia (Kochia scoparia) [5] = experiment: Test C postemergence; details: Bassia scoparia, post-emergence, Postemergence, scale 0 to 100, read-out: Plant response rating, Kochia
Summary of the method: as §2

corn (Zea mays) = experiment: Test A postemergence; details: Zea mays, post-emergence, 240 h, 0 to 100 scale
Summary of the method: (§3)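 Injury scores run from 0, no effect, to 100, complete control, judged by eye against untreated plants roughly 10 days after treatment. Chemicals carried a surfactant in a non-phytotoxic solvent and went onto loam–sand soil preemergence or onto one- to two-leaf seedlings postemergence.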

[6] = test system: wheat (Triticum aestivum); experiment: Test A postemergence; details: Triticum aestivum, post-emergence, 240 h, 0 to 100 scale, read-out: Plant response rating, Wheat
Summary of the method: as §3

[7] = test system: barnyardgrass (Echinochloa crus-galli); experiment: Test A postemergence; details: Echinochloa crus-galli, post-emergence, 240 h, 0 to 100 scale, read-out: Plant response rating, Barnyardgrass
Summary of the method: as §3

[8] = test system: ragweed (common ragweed, Ambrosia elatior); experiment: Test A postemergence; details: Ambrosia artemisiifolia, post-emergence, 240 h, 0 to 100 scale, read-out: Plant response rating, Ragweed
Summary of the method: as §3

[9] = test system: pigweed (Amaranthus retroflexus); experiment: Test A postemergence; details: Amaranthus retroflexus, post-emergence, 240 h, 0 to 100 scale, read-out: Plant response rating, Pigweed
Summary of the method: as §3

[10] = test system: blackgrass (Alopecurus myosuroides); experiment: Test A postemergence; details: Alopecurus myosuroides, post-emergence, 240 h, 0 to 100 scale, read-out: Plant response rating, Blackgrass
Summary of the method: as §3

kochia (Kochia scoparia) [11] = experiment: Test A postemergence; details: Bassia scoparia, post-emergence, 240 h, 0 to 100 scale, read-out: Plant response rating, Kochia
Summary of the method: as §3

[12] = test system: giant foxtail (Setaria faberii); experiment: Test A postemergence; details: Setaria faberi, post-emergence, 240 h, 0 to 100 scale, read-out: Plant response rating, Foxtail, Giant
Summary of the method: as §3

[13] = test system: Italian ryegrass (Lolium multiflorum); experiment: Test A postemergence; details: Lolium multiflorum, post-emergence, 240 h, 0 to 100 scale, read-out: Plant response rating, Ryegrass, Italian
Summary of the method: as §3

[14] = test system: galium (catchweed bedstraw, Galium aparine); experiment: Test A postemergence; details: Galium, post-emergence, 240 h, 0 to 100 scale, read-out: Plant response rating, Galium
Summary of the method: as §3

[15] = test system: barnyardgrass (Echinochloa crus-galli); experiment: Test A preemergence; details: Echinochloa crus-galli, pre-emergence, 240 h
Summary of the method: as §3

[16] = test system: ragweed (common ragweed, Ambrosia elatior); experiment: Test A preemergence; details: Ambrosia artemisiifolia, pre-emergence, 240 h, 0 to 100 scale (0 no effect, 100 complete control), read-out: Ragweed plant response rating
Summary of the method: as §3

[17] = test system: pigweed (Amaranthus retroflexus); experiment: Test A preemergence; details: Amaranthus retroflexus, pre-emergence, 240 h, 0 to 100 scale (0 no effect, 100 complete control), read-out: Pigweed plant response rating
Summary of the method: as §3

kochia (Kochia scoparia) [18] = experiment: Test A preemergence; details: Bassia scoparia, pre-emergence, 240 h, 0 to 100 scale (0 no effect, 100 complete control), read-out: Kochia plant response rating
Summary of the method: as §3

[19] = test system: giant foxtail (Setaria faberii); experiment: Test A preemergence; details: Setaria faberi, pre-emergence, 240 h, 0 to 100 scale (0 no effect, 100 complete control), read-out: Foxtail, Giant plant response rating
Summary of the method: as §3

[20] = test system: Italian ryegrass (Lolium multiflorum); experiment: Test A preemergence; details: Lolium multiflorum, pre-emergence, 240 h, 0 to 100 scale (0 no effect, 100 complete control), read-out: Ryegrass, Italian plant response rating
Summary of the method: as §3

## N#Cc1cccc(Oc2ncc(Cl)cn2)c1Oc1cnc(Cl)cn1 [Compound 32, 2-[(5-chloro-2-pyrazinyl)oxy]-3-[(5-chloro-2-pyrimidinyl)oxy]benzonitrile]
[1]
  pest or weed control at 250 g/ha: 70%
Rice (Oryza sativa)
  plant injury at 250 g/ha: 40%
[2]
  pest or weed control at 250 g/ha: 90%
[3]
  pest or weed control at 250 g/ha: 75%
Wild oat (Avena fatua); 31 g ai/ha
  pest or weed control at 31 g/ha: 30%
Wild oat (Avena fatua); 62 g ai/ha
  pest or weed control at 62 g/ha: 30%
Wild oat (Avena fatua); 125 g ai/ha
  pest or weed control at 125 g/ha: 30%
[4]; 31 g ai/ha
  pest or weed control at 31 g/ha: 85%
[4]; 62 g ai/ha
  pest or weed control at 62 g/ha: 85%
[4]; 125 g ai/ha
  pest or weed control at 125 g/ha: 95%
Kochia (Kochia scoparia) [5]; 16 g ai/ha
  pest or weed control at 16 g/ha: 90%
Kochia (Kochia scoparia) [5]; 31 g ai/ha
  pest or weed control at 31 g/ha: 90%
Kochia (Kochia scoparia) [5]; 62 g ai/ha
  pest or weed control at 62 g/ha: 90%
Kochia (Kochia scoparia) [5]; 125 g ai/ha
  pest or weed control at 125 g/ha: 90%
Corn (Zea mays); 31 g ai/ha
  Corn plant response rating (crop injury, 0 = no effect, 100 = complete kill) at 31 g/ha: 30%
Corn (Zea mays); 125 g ai/ha
  Corn plant response rating (crop injury, 0 = no effect, 100 = complete kill) at 125 g/ha: 50%
[6]; 31 g ai/ha
  plant injury at 31 g/ha: 0%
[6]; 125 g ai/ha
  plant injury at 125 g/ha: 30%
[7]; 31 g ai/ha
  pest or weed control at 31 g/ha: 40%
[7]; 125 g ai/ha
  pest or weed control at 125 g/ha: 100%
[8]; 31 g ai/ha
  pest or weed control at 31 g/ha: 10%
[8]; 125 g ai/ha
  pest or weed control at 125 g/ha: 30%
[9]; 31 g ai/ha
  pest or weed control at 31 g/ha: 100%
[9]; 125 g ai/ha
  pest or weed control at 125 g/ha: 100%
[10]; 31 g ai/ha
  pest or weed control at 31 g/ha: 60%
[10]; 125 g ai/ha
  pest or weed control at 125 g/ha: 70%
Kochia (Kochia scoparia) [11]; 31 g ai/ha
  pest or weed control at 31 g/ha: 90%
Kochia (Kochia scoparia) [11]; 125 g ai/ha
  pest or weed control at 125 g/ha: 90%
[12]; 31 g ai/ha
  pest or weed control at 31 g/ha: 50%
[12]; 125 g ai/ha
  pest or weed control at 125 g/ha: 90%
[13]; 31 g ai/ha
  pest or weed control at 31 g/ha: 10%
[13]; 125 g ai/ha
  pest or weed control at 125 g/ha: 50%
[14]; 31 g ai/ha
  pest or weed control at 31 g/ha: 90%
[14]; 125 g ai/ha
  pest or weed control at 125 g/ha: 90%
[15]; 31 g ai/ha, 0 to 100 scale (0 no effect, 100 complete control), read-out: Barnyardgrass plant response rating
  pest or weed control at 31 g/ha: 30%
[15]; 125 g ai/ha, 0 to 100 scale, read-out: Plant response rating, Barnyardgrass
  pest or weed control at 125 g/ha: 90%
[16]; 31 g ai/ha
  pest or weed control at 31 g/ha: 0%
[16]; 125 g ai/ha
  pest or weed control at 125 g/ha: 30%
[17]; 31 g ai/ha
  pest or weed control at 31 g/ha: 100%
[17]; 125 g ai/ha
  pest or weed control at 125 g/ha: 100%
Kochia (Kochia scoparia) [18]; 31 g ai/ha
  pest or weed control at 31 g/ha: 100%
Kochia (Kochia scoparia) [18]; 125 g ai/ha
  pest or weed control at 125 g/ha: 100%
[19]; 31 g ai/ha
  pest or weed control at 31 g/ha: 100%
[19]; 125 g ai/ha
  pest or weed control at 125 g/ha: 100%
[20]; 31 g ai/ha
  pest or weed control at 31 g/ha: 10%
[20]; 125 g ai/ha
  pest or weed control at 125 g/ha: 60%
